Patent US20060235076A1, “Medicinal composition for treating infection with drug-resistant staphylococcus aureus” (priority 2003, published 2006)

System: MRSA
Experiment: Potentiating effect of galloyl quinic acid derivatives for the antibacterial activity of oxacillin (agar plate dilution method, MIC)
Type: cell-based, Staphylococcus aureus
Method: According to the agar plate dilution method defined by Japan Society of Chemotherapy, MIC (Minimum inhibitory concentration) was determined. CAMHA was prepared by adding 50 mg/l of Ca-ion, 25 mg/l of Mg-ion, and 2% of NaCl to Mueller-Hinton II Agar (MHA), and it was used as a medium for use in the measurement of sensitivity. The bacterial liquid was incubated at 37° C. overnight and diluted to 10^6 CFU/ml with saline.
It was confirmed that the known substances shown below were contained in “Tara” and their MICs were determined as described in example 2 with respect to the effects of the combination use with oxacillin

[1] = ATCC 6538, with 12.5 μg/ml of compound
[2] = ATCC 6538, with 25 μg/ml of compound
[3] = ATCC 6538, with 50 μg/ml of compound
[4] = MRSA 1, with 12.5 μg/ml of compound
[5] = MRSA 1, with 25 μg/ml of compound
[6] = MRSA 1, with 50 μg/ml of compound
[7] = MRSA 2, with 12.5 μg/ml of compound
[8] = MRSA 2, with 25 μg/ml of compound
[9] = MRSA 2, with 50 μg/ml of compound
[10] = MRSA 3, with 12.5 μg/ml of compound
[11] = MRSA 3, with 25 μg/ml of compound
[12] = MRSA 3, with 50 μg/ml of compound
[13] = MRSA 4, with 12.5 μg/ml of compound
[14] = MRSA 4, with 25 μg/ml of compound
[15] = MRSA 4, with 50 μg/ml of compound
[16] = MRSA 5, with 12.5 μg/ml of compound
[17] = MRSA 5, with 25 μg/ml of compound
[18] = MRSA 5, with 50 μg/ml of compound
[19] = MRSA 6, with 12.5 μg/ml of compound
[20] = MRSA 6, with 25 μg/ml of compound
[21] = MRSA 6, with 50 μg/ml of compound
[22] = MRSA 7, with 12.5 μg/ml of compound
[23] = MRSA 7, with 25 μg/ml of compound
[24] = MRSA 7, with 50 μg/ml of compound
[25] = MRSA 8, with 12.5 μg/ml of compound
[26] = MRSA 8, with 25 μg/ml of compound
[27] = MRSA 8, with 50 μg/ml of compound
[28] = MRSA 9, with 12.5 μg/ml of compound
[29] = MRSA 9, with 25 μg/ml of compound
[30] = MRSA 9, with 50 μg/ml of compound
[31] = MRSA 10, with 12.5 μg/ml of compound
[32] = MRSA 10, with 25 μg/ml of compound
[33] = MRSA 10, with 50 μg/ml of compound
[34] = MRSA 12, with 12.5 μg/ml of compound
[35] = MRSA 12, with 25 μg/ml of compound
[36] = MRSA 12, with 50 μg/ml of compound
[37] = MRSA 16, with 12.5 μg/ml of compound
[38] = MRSA 16, with 25 μg/ml of compound
[39] = MRSA 16, with 50 μg/ml of compound
[40] = MRSA 17, with 12.5 μg/ml of compound
[41] = MRSA 17, with 25 μg/ml of compound
[42] = MRSA 17, with 50 μg/ml of compound
[43] = MRSA 18, with 12.5 μg/ml of compound
[44] = MRSA 18, with 25 μg/ml of compound
[45] = MRSA 18, with 50 μg/ml of compound
[46] = MRSA 20, with 12.5 μg/ml of compound
[47] = MRSA 20, with 25 μg/ml of compound
[48] = MRSA 20, with 50 μg/ml of compound
[49] = MRSA 21, with 12.5 μg/ml of compound
[50] = MRSA 21, with 25 μg/ml of compound
[51] = MRSA 21, with 50 μg/ml of compound
[52] = MRSA 22, with 12.5 μg/ml of compound
[53] = MRSA 22, with 25 μg/ml of compound
[54] = MRSA 22, with 50 μg/ml of compound
[55] = MRSA COL, with 12.5 μg/ml of compound
[56] = MRSA COL, with 25 μg/ml of compound
[57] = MRSA COL, with 50 μg/ml of compound
[58] = MSSA 1003, with 12.5 μg/ml of compound
[59] = MSSA 1003, with 25 μg/ml of compound
[60] = MSSA 1003, with 50 μg/ml of compound
[61] = MSSA 1010, with 12.5 μg/ml of compound
[62] = MSSA 1010, with 25 μg/ml of compound
[63] = MSSA 1010, with 50 μg/ml of compound
[64] = MSSA 1032, with 12.5 μg/ml of compound
[65] = MSSA 1032, with 25 μg/ml of compound
[66] = MSSA 1032, with 50 μg/ml of compound
[67] = RN4220, with 12.5 μg/ml of compound
[68] = RN4220, with 25 μg/ml of compound
[69] = RN4220, with 50 μg/ml of compound

## COC(=O)C1(O)CC(OC(=O)c2cc(O)c(O)c(O)c2)C(OC(=O)c2cc(O)c(O)c(O)c2)C(OC(=O)c2cc(O)c(O)c(O)c2)C1 (centres unmarked) [compound 2]
[1]
  Oxacillin MIC: <0.5 µg/mL
[2]
  Oxacillin MIC: <0.5 µg/mL
[3]
  Oxacillin MIC: <0.5 µg/mL
[4]
  Oxacillin MIC: >256 µg/mL
[5]
  Oxacillin MIC: >256 µg/mL
[6]
  Oxacillin MIC: >256 µg/mL
[7]
  Oxacillin MIC: 256 µg/mL
[8]
  Oxacillin MIC: 32 µg/mL
[9]
  Oxacillin MIC: 32 µg/mL
[10]
  Oxacillin MIC: 64 µg/mL
[11]
  Oxacillin MIC: 32 µg/mL
[12]
  Oxacillin MIC: 32 µg/mL
[13]
  Oxacillin MIC: 256 µg/mL
[14]
  Oxacillin MIC: 256 µg/mL
[15]
  Oxacillin MIC: 256 µg/mL
[16]
  Oxacillin MIC: >256 µg/mL
[17]
  Oxacillin MIC: 256 µg/mL
[18]
  Oxacillin MIC: 256 µg/mL
[19]
  Oxacillin MIC: 128 µg/mL
[20]
  Oxacillin MIC: 32 µg/mL
[21]
  Oxacillin MIC: 64 µg/mL
[22]
  Oxacillin MIC: 256 µg/mL
[23]
  Oxacillin MIC: 128 µg/mL
[24]
  Oxacillin MIC: 64 µg/mL
[25]
  Oxacillin MIC: 64 µg/mL
[26]
  Oxacillin MIC: 64 µg/mL
[27]
  Oxacillin MIC: 64 µg/mL
[28]
  Oxacillin MIC: >256 µg/mL
[29]
  Oxacillin MIC: 256 µg/mL
[30]
  Oxacillin MIC: 128 µg/mL
[31]
  Oxacillin MIC: 64 µg/mL
[32]
  Oxacillin MIC: 64 µg/mL
[33]
  Oxacillin MIC: 64 µg/mL
[34]
  Oxacillin MIC: 256 µg/mL
[35]
  Oxacillin MIC: 128 µg/mL
[36]
  Oxacillin MIC: 256 µg/mL
[37]
  Oxacillin MIC: >255 µg/mL
[38]
  Oxacillin MIC: 256 µg/mL
[39]
  Oxacillin MIC: 256 µg/mL
[40]
  Oxacillin MIC: 128 µg/mL
[41]
  Oxacillin MIC: 256 µg/mL
[42]
  Oxacillin MIC: 256 µg/mL
[43]
  Oxacillin MIC: 256 µg/mL
[44]
  Oxacillin MIC: 128 µg/mL
[45]
  Oxacillin MIC: 128 µg/mL
[46]
  Oxacillin MIC: 8 µg/mL
[47]
  Oxacillin MIC: 2 µg/mL
[48]
  Oxacillin MIC: 4 µg/mL
[49]
  Oxacillin MIC: 32 µg/mL
[50]
  Oxacillin MIC: 8 µg/mL
[51]
  Oxacillin MIC: 16 µg/mL
[52]
  Oxacillin MIC: 32 µg/mL
[53]
  Oxacillin MIC: 16 µg/mL
[54]
  Oxacillin MIC: 32 µg/mL
[55]
  Oxacillin MIC: 256 µg/mL
[56]
  Oxacillin MIC: 128 µg/mL
[57]
  Oxacillin MIC: 128 µg/mL
[58]
  Oxacillin MIC: <0.5 µg/mL
[59]
  Oxacillin MIC: <0.5 µg/mL
[60]
  Oxacillin MIC: <0.5 µg/mL
[61]
  Oxacillin MIC: <0.5 µg/mL
[62]
  Oxacillin MIC: <0.5 µg/mL
[63]
  Oxacillin MIC: <0.5 µg/mL
[64]
  Oxacillin MIC: <0.5 µg/mL
[65]
  Oxacillin MIC: <0.5 µg/mL
[66]
  Oxacillin MIC: <0.5 µg/mL
[67]
  Oxacillin MIC: <0.5 µg/mL
[68]
  Oxacillin MIC: <0.5 µg/mL
[69]
  Oxacillin MIC: <0.5 µg/mL

## COC(=O)C1(O)CC(O)C(OC(=O)c2cc(O)c(O)c(O)c2)C(OC(=O)c2cc(O)c(O)c(O)c2)C1 (centres unmarked) [compound 1]
[1]
  Oxacillin MIC: <0.5 µg/mL
[2]
  Oxacillin MIC: <0.063 µg/mL
[3]
  Oxacillin MIC: <0.5 µg/mL
[4]
  Oxacillin MIC: 128 µg/mL
[5]
  Oxacillin MIC: 128 µg/mL
[6]
  Oxacillin MIC: 128 µg/mL
[7]
  Oxacillin MIC: 2 µg/mL
[8]
  Oxacillin MIC: 2 µg/mL
[9]
  Oxacillin MIC: 2 µg/mL
[10]
  Oxacillin MIC: <0.5 µg/mL
[11]
  Oxacillin MIC: 0.5 µg/mL
[12]
  Oxacillin MIC: 1 µg/mL
[13]
  Oxacillin MIC: 128 µg/mL
[14]
  Oxacillin MIC: 128 µg/mL
[15]
  Oxacillin MIC: 32 µg/mL
[16]
  Oxacillin MIC: 128 µg/mL
[17]
  Oxacillin MIC: 32 µg/mL
[18]
  Oxacillin MIC: 64 µg/mL
[19]
  Oxacillin MIC: 2 µg/mL
[20]
  Oxacillin MIC: 2 µg/mL
[21]
  Oxacillin MIC: 4 µg/mL
[22]
  Oxacillin MIC: 32 µg/mL
[23]
  Oxacillin MIC: 16 µg/mL
[24]
  Oxacillin MIC: 16 µg/mL
[25]
  Oxacillin MIC: <0.5 µg/mL
[26]
  Oxacillin MIC: 16 µg/mL
[27]
  Oxacillin MIC: 1 µg/mL
[28]
  Oxacillin MIC: 16 µg/mL
[29]
  Oxacillin MIC: 16 µg/mL
[30]
  Oxacillin MIC: 8 µg/mL
[31]
  Oxacillin MIC: 4 µg/mL
[32]
  Oxacillin MIC: 8 µg/mL
[33]
  Oxacillin MIC: 8 µg/mL
[34]
  Oxacillin MIC: 16 µg/mL
[35]
  Oxacillin MIC: 16 µg/mL
[36]
  Oxacillin MIC: 16 µg/mL
[37]
  Oxacillin MIC: 128 µg/mL
[38]
  Oxacillin MIC: 128 µg/mL
[39]
  Oxacillin MIC: 64 µg/mL
[40]
  Oxacillin MIC: 32 µg/mL
[41]
  Oxacillin MIC: 32 µg/mL
[42]
  Oxacillin MIC: 4 µg/mL
[43]
  Oxacillin MIC: 128 µg/mL
[44]
  Oxacillin MIC: 128 µg/mL
[45]
  Oxacillin MIC: 32 µg/mL
[46]
  Oxacillin MIC: <0.5 µg/mL
[47]
  Oxacillin MIC: 0.25 µg/mL
[48]
  Oxacillin MIC: <0.5 µg/mL
[49]
  Oxacillin MIC: <0.5 µg/mL
[50]
  Oxacillin MIC: 0.25 µg/mL
[51]
  Oxacillin MIC: 1 µg/mL
[52]
  Oxacillin MIC: 1 µg/mL
[53]
  Oxacillin MIC: 0.5 µg/mL
[54]
  Oxacillin MIC: 1 µg/mL
[55]
  Oxacillin MIC: 8 µg/mL
[56]
  Oxacillin MIC: 32 µg/mL
[57]
  Oxacillin MIC: 2 µg/mL
[58]
  Oxacillin MIC: <0.5 µg/mL
[59]
  Oxacillin MIC: 0.25 µg/mL
[60]
  Oxacillin MIC: <0.5 µg/mL
[61]
  Oxacillin MIC: <0.5 µg/mL
[62]
  Oxacillin MIC: 0.5 µg/mL
[63]
  Oxacillin MIC: <0.5 µg/mL
[64]
  Oxacillin MIC: <0.5 µg/mL
[65]
  Oxacillin MIC: 0.25 µg/mL
[66]
  Oxacillin MIC: <0.5 µg/mL
[67]
  Oxacillin MIC: <0.5 µg/mL
[68]
  Oxacillin MIC: 0.125 µg/mL
[69]
  Oxacillin MIC: <0.5 µg/mL

## COC(=O)C1(O)CC(OC(=O)c2cc(O)c(O)c(O)c2)C(OC(=O)c2cc(O)c(O)c(O)c2)C(OC(=O)c2cc(O)c(O)c(O)c2)C1 (centres unmarked) [Methyl 3,4,5-trigalloylquinate, methyl 3,4,5-trigalloylquinate]
  effect of combination use with oxacillin (words): weak effects

## O=C(OC1CC(O)(C(=O)O)CC(O)C1OC(=O)c1cc(O)c(O)c(O)c1)c1cc(O)c(O)c(O)c1 (centres unmarked) [3,4-digalloylquinic acid]
  effect of combination use with oxacillin (words): weak effects
